Target: T1, Rtt109–Vps75 (Saccharomyces cerevisiae, UniProt Q07794)
T1 sequence (Q07794 1-436): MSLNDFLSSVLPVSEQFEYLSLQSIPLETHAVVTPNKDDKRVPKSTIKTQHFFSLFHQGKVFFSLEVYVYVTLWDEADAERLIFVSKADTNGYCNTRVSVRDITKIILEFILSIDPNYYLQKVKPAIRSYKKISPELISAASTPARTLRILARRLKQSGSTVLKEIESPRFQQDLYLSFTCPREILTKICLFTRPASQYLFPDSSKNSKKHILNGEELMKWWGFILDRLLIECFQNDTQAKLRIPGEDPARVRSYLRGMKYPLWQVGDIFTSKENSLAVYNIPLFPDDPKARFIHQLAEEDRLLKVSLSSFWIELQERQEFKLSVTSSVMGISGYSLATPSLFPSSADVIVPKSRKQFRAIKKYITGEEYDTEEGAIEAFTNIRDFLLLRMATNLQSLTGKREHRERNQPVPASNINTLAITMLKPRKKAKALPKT
T1 sequence (P53853 1-264 partner): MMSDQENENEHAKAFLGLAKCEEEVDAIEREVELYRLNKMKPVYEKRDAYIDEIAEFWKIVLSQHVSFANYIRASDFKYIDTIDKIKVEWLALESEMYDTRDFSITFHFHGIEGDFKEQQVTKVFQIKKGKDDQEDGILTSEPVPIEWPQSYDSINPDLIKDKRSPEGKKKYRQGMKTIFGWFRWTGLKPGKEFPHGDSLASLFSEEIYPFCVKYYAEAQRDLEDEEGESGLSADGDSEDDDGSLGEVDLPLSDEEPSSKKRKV
Experiment: in vitro [3H]-acetyl-CoA HAT assay, Rtt109–Vps75
Format: biochemical, yeast
Settings: radiolabeled HAT assay; p = 0.61, n = 3 for 1a

- difference in IC50 values in presence or absence of DTT and BSA: significant decrease in IC50
Structure (SMILES): CCN(CC)c1ccc2c(C)c(-c3ccc(N4C(=O)C=CC4=O)cc3)c(=O)oc2c1 [CPM, N-[4-(7-diethylamino-4-methylcoumarin-3-yl)phenyl]maleimide]
